In US9738902B2, “Modified PYR/PYL receptors activated by ligands” (priority 2013, dated 2017):

Columns and labels:
Assay type in all cases: in vivo, Arabidopsis
[1] = tested on: 35S::PYR1^MANDI transgenic seeds; test: seed germination on mandipropamid medium; details: 1 μM mandipropamid
Description: (§1) We generated a series of transgenic plants expressing PYR1^MANDI under the control of either the cauliflower mosaic virus 35S or Arabidopsis Rubisco small subunit 3B promoters (RBCS). These were generated for the purpose of examining the physiological efficacy of the PYR1^MANDI-mandipropamid system for regulating ABA responses in planta. The PYR1^MANDI coding sequence was PCR amplified from pBD-PYR1^MANDI template and cloned into the plant transformation vector pEGAD under control of the 35S promoter. For the RBCS driven construct, the 35S promoter in pEGAD was replaced with the RBCS promoter, which was amplified from Arabidopsis genomic DNA by PCR; the pEGAD vector contains a glufosinate resistance gene and allows selection of transgenics in soil using commercially available formulations of glufosinate. These two constructs, p35S::PYR1^MANDI and pRBCS::PYR1^MANDI, were introduced into Agrobacterium tumefacians GV3101 and then used to transform Arabidopsis using the floral dip method (Clough and Bent, 1998) and the resultant seed germinated in soil and treated with glufosinate to identify transformed plants. Seed from approximately 15-16 transgenic plants were harvested individually and then characterized. It is well known that ABA inhibits seed germination. […]

[2] = tested on: RBCS::PYR1^MANDI transgenic seeds; test: seed germination on mandipropamid medium; details: 1 μM mandipropamid
Description: as §1

[3] = tested on: PYR1^MANDI transgenic plants (E15, E16, F29, F34); test: progressive water loss regime (drought); details: 2 μM mandipropamid, repeated 4 days later; day 11
Procedure: Treatment of plants with ABA delays water loss and additionally improves the ability of plants to recover from drought. We therefore examined the behavior of wild type, 35S::GFP-PYR and 4 homozygous PYR1^MANDI expressing transgenic plants (E15, E16, F29 and F34) during a progressive water loss regime. […] Plants were grown for three weeks in pots containing the same mass of soil and receiving the same amount of water at each watering. At three weeks after germination, regular watering of the plants was ceased and plants were treated with mock or 2 μM mandipropamid. These treatments were repeated 4 days later. Plants were photographed at 1, 10 and 11 days after initiation of water deprivation. As is evident from FIG. 6, by day 10 mock treated plants display evidence of water stress as indicated by collapsed leaves, by day 11 all mock treated plants have experienced severe desiccation. […] This is also observed for wild type and 35S::GFP-PYR plants treated with mandipropamid at day 10. […] This is in contrast to wild type and 35S::GFP-PYR1 control plants treated with mandipropamid and all mock treated lines. Thus, mandipropamid is able to improve drought stress tolerance in PYR1^MANDI expressing transgenic plants. The beneficial effects of mandipropamid are restricted to PYR1^MANDI expressing transgenic plants.

SMILES: C#CCOc1ccc(CCNC(=O)C(OCC#C)c2ccc(Cl)cc2)cc1OC (stereo not drawn) [Mandipropamid, mandipropamid]
- transgenic plants whose germination was inhibited by mandipropamid [1]: 5 of the 15
- transgenic plants whose germination was inhibited by mandipropamid [2]: 7 of the 16
- desiccation during water deprivation [3]: not desiccated
